Assay results: the supplement of paper PMC10307832

How the values were obtained:
Test in all cases: relative viability (nuclei count vs DMSO), 5 days (fraction); higher = more cells survive
Trametinib + Foretinib = compound: CC(=O)Nc1cccc(-n2c(=O)n(C3CC3)c(=O)c3c(Nc4ccc(I)cc4F)n(C)c(=O)c(C)c32)c1 [Trametinib] + COc1cc2c(Oc3ccc(NC(=O)C4(C(=O)Nc5ccc(F)cc5)CC4)cc3F)ccnc2cc1OCCCN1CCOCC1 [Foretinib] (partner 0.25 µM)
How it was run: (§1)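 Medians of duplicate plates are given as relative viability. That measure is the nuclei count in treated wells divided by the count in vehicle wells. Counts were taken on 4× images of lung cancer cell lines in 1536-well plates, 5 days after pin-tool dosing the day after seeding with one drug alone or a fixed anchor-drug dose plus five library-drug doses (not always all listed) in √10 steps.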

Trametinib + AZD7762 = compound: CC(=O)Nc1cccc(-n2c(=O)n(C3CC3)c(=O)c3c(Nc4ccc(I)cc4F)n(C)c(=O)c(C)c32)c1 [Trametinib] + NC(=O)Nc1cc(-c2cccc(F)c2)sc1C(=O)N[C@H]1CCCNC1 [AZD7762] (partner 0.2 µM)
How it was run: as §1

[1] = compound: CN1C=C(C2=CC=CC=C21)/C=C\3/C4=C(C=CC=N4)NC3=O + CS(=O)(=O)CCNCc1ccc(-c2ccc3ncnc(Nc4ccc(OCc5cccc(F)c5)c(Cl)c4)c3c2)o1 [Lapatinib] (partner 2 µM)
How it was run: as §1

[2] = compound: CN1C=C(C2=CC=CC=C21)/C=C\3/C4=C(C=CC=N4)NC3=O + CC(C)C[C@H](NC(=O)[C@H](Cc1ccccc1)NC(=O)c1cnccn1)B(O)O [Bortezomib] (partner 0.002 µM)
How it was run: as §1

| Cell Line | relative viability (Trametinib + Foretinib; first compound 0.0025 µM) | relative viability (Trametinib + Foretinib; first compound 0.007906 µM) | relative viability (Trametinib + Foretinib; first compound 0.025 µM) | relative viability (Trametinib + Foretinib; first compound 0.07906 µM) | relative viability (Trametinib + Foretinib; first compound 0.25 µM) | relative viability (Trametinib + AZD7762; first compound 0.0025 µM) | relative viability (Trametinib + AZD7762; first compound 0.007906 µM) | relative viability (Trametinib + AZD7762; first compound 0.025 µM) | relative viability (Trametinib + AZD7762; first compound 0.07906 µM) | relative viability (Trametinib + AZD7762; first compound 0.25 µM) | relative viability ([1]; first compound 0.02 µM) | relative viability ([1]; first compound 0.06325 µM) | relative viability ([1]; first compound 0.2 µM) | relative viability ([1]; first compound 0.6325 µM) | relative viability ([1]; first compound 2 µM) | relative viability ([2]; first compound 0.02 µM) | relative viability ([2]; first compound 0.06325 µM) | relative viability ([2]; first compound 0.2 µM) | relative viability ([2]; first compound 0.6325 µM) | relative viability ([2]; first compound 2 µM) |
| --- | --- | --- | --- | --- | --- | --- | --- | --- | --- | --- | --- | --- | --- | --- | --- | --- | --- | --- | --- | --- |
| NCI-H1651 | 0.773 | 0.687 | 0.702 | 0.652 | 0.671 | 0.454 | 0.427 | 0.352 | 0.439 | 0.186 | 1.02 | 1.09 | 0.761 | 0.836 | 1.09 | 0.811 | 1.03 | 0.931 | 0.885 | 1.06 |
| RERF-LC-KJ | 0.948 | 0.851 | 0.699 | 0.827 | 0.778 | 0.853 | 0.909 | 0.674 | 0.807 | 0.814 | 0.984 | 0.813 | 0.821 | 0.7 | 0.752 | 1.24 | 1.11 | 0.994 | 0.958 | 0.974 |
| CAL-12T | 0.969 | 0.893 | 0.716 | 0.499 | 0.489 | 0.642 | 0.61 | 0.619 | 0.536 | 0.483 | 0.652 | 0.625 | 0.574 | 0.717 | 0.839 | 0.904 | 0.882 | 0.945 | 1.08 | 1.04 |
| NCI-H1993 | 0.657 | 0.616 | 0.678 | 0.663 | 0.661 | 0.694 | 0.716 | 0.395 | 0.504 | 0.472 | 0.694 | 0.497 | 0.83 | 0.788 | 0.909 | 0.916 | 1.09 | 1.09 | 0.691 | 0.697 |
| LXF-289 | 0.956 | 0.863 | 0.77 | 0.661 | 0.595 | 0.994 | 0.906 | 0.818 | 0.71 | 0.534 | 0.889 | 0.882 | 0.905 | 0.911 | 0.884 | 0.951 | 0.992 | 1.1 | 1.02 | 1.04 |
| LU99A | 0.793 | 0.817 | 0.637 | 0.53 | 0.438 | 0.365 | 0.353 | 0.2 | 0.214 | 0.179 | 0.986 | 0.805 | 0.9 | 0.964 | 0.85 | 1.16 | 1.09 | 1.09 | 1.13 | 0.964 |
| NCI-H1755 | 0.856 | 0.863 | 0.82 | 0.809 | 0.787 | 0.457 | 0.405 | 0.428 | 0.426 | 0.352 | 0.966 | 0.918 | 0.903 | 0.959 | 0.958 | 0.953 | 0.889 | 0.868 | 0.953 | 0.87 |
| LOU-NH91 | 0.909 | 0.805 | 0.733 | 0.757 | 0.549 | 0.769 | 0.704 | 0.704 | 0.676 | 0.548 | 0.578 | 0.577 | 0.59 | 0.601 | 0.668 | 0.473 | 0.489 | 0.468 | 0.441 | 0.485 |
| EMC-BAC-2 | 0.917 | 0.885 | 0.782 | 0.907 | 0.68 | 1.19 | 1.14 | 0.994 | 0.932 | 0.757 | 0.883 | 0.91 | 0.934 | 0.836 | 0.921 | 0.901 | 1.05 | 1.01 | 1.05 | 1.14 |
| EKVX | 0.809 | 0.724 | 0.332 | 0.379 | 0.838 | 0.653 | 0.712 | 0.583 | 0.442 | 0.769 | 0.221 | 0.148 | 0.156 | 0.188 | 0.167 | 1.05 | 0.79 | 0.946 | 1.04 | 0.972 |
| NCI-H2085 | 0.695 | 0.732 | 0.625 | 0.587 | 0.626 | 0.81 | 0.752 | 0.391 | 0.518 | 0.541 | 0.746 | 0.654 | 0.596 | 0.605 | 0.813 | 0.993 | 1.07 | 0.995 | 1.07 | 1.04 |
| NCI-H3122 | 0.895 | 0.769 | 0.293 | 0.251 | 0.159 | 0.947 | 0.642 | 0.292 | 0.361 | 0.308 | 0.928 | 0.934 | 0.952 | 1.06 | 1.02 | 0.943 | 0.986 | 1 | 1.06 | 0.992 |
| HCC-827 | 1.01 | 0.95 | 0.787 | 0.556 | 0.425 | 0.226 | 0.17 | 0.153 | 0.183 | 0.161 | 0.21 | 0.185 |  | 0.159 | 0.179 | 0.898 | 1.02 |  | 1.03 | 1.03 |
| HARA | 0.834 | 0.555 | 0.58 | 0.515 | 0.232 | 0.447 | 0.394 | 0.365 | 0.276 | 0.215 | 0.703 | 0.653 | 0.665 | 0.857 | 0.768 | 1.06 | 1.09 | 0.87 | 1.18 | 1.14 |
| HCC-15 | 0.75 | 0.559 | 0.343 | 0.244 | 0.201 | 1.29 | 1 | 1.14 | 0.928 | 0.407 | 0.827 | 0.71 | 0.903 | 0.886 | 0.932 | 0.972 | 0.939 | 1.09 | 1.09 | 1.18 |
| ABC-1 | 1.04 | 0.834 | 0.715 | 0.891 | 0.685 | 0.801 | 0.756 | 0.562 | 0.555 | 0.915 | 1.39 | 1.16 | 1.12 | 1.25 | 1.28 | 0.368 | 0.257 | 0.285 | 0.299 | 0.372 |
